Experimental data published in patent publication US10577362B2, “Substituted 2, 4-diamino-quinoline derivatives for use in the treatment of proliferative diseases” (GENOSCIENCE PHARMA, priority 2016, dated 2020).

Legend:
[1] = test system: MOLM-14 (acute myeloid leukemia) cell line; assay: CellTiter-Glo luminescent cell viability assay, MOLM-14; type: cell-based, human; conditions: Homo sapiens; for viability at 4 µM: MOLM-14, compound at 4 μM; for viability at 4 µM / viability at 10 µM: 72 h; for viability at 10 µM: MOLM-14, compound at 10 μM; for EC50: MOLM-14 cell line, 72 h incubation, CellTiter-Glo, read-out: EC50, growth inhibition of MOLM-14
In short: (§1)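 EC50 is the concentration cutting CellTiter-Glo luminescence to half that of H2O- or DMSO-treated controls after 72 h compound exposure, with each point in at least duplicate. HepG2, Huh7 and PANC-1 were seeded the night before; MOLM-14 1 h prior; all cultured with 10% FBS, 37 °C, 5% CO2.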

[2] = test system: A375 (malignant melanoma) cell line; assay: CellTiter-Glo luminescent cell viability assay, A375; type: cell-based, human; conditions: Homo sapiens, A-375; for viability at 4 µM: A375, compound at 4 μM; for viability at 4 µM / viability at 10 µM: 72 h; for viability at 10 µM: A375, compound at 10 μM; for EC50: A375 cell line, 72 h incubation, CellTiter-Glo, read-out: EC50, growth inhibition of A375
In short: (§2)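 In a 72 h viability assay, compound-treated cells were compared against matched H2O or DMSO diluent controls by luminescence, points in at least duplicate.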

[3] = test system: HCT-116 (colorectal carcinoma) cell line; assay: CellTiter-Glo luminescent cell viability assay, HCT-116; type: cell-based, human; conditions: Homo sapiens; for viability at 4 µM: HCT-116, compound at 4 μM; for viability at 4 µM / viability at 10 µM: 72 h; for viability at 10 µM: HCT-116, compound at 10 μM; for EC50: HCT-116 cell line, 72 h incubation, CellTiter-Glo, read-out: EC50, growth inhibition of HCT-116
In short: as §2

[4] = test system: Huh7 (hepatocellular carcinoma) cell line; assay: CellTiter-Glo luminescent cell viability assay, Huh7; type: cell-based, human; conditions: Homo sapiens, Huh-7; for viability at 4 µM: Huh7, compound at 4 μM; for viability at 4 µM / viability at 10 µM: 72 h; for viability at 10 µM: Huh7, compound at 10 μM; for EC50: Huh7 cell line, 72 h incubation, CellTiter-Glo, read-out: EC50, growth inhibition of Huh7
In short: as §1

[5] = test system: 786-O (renal adenocarcinoma) cell line; assay: CellTiter-Glo luminescent cell viability assay, 786-O; type: cell-based, human; conditions: Homo sapiens, 786-0; for EC50: 786-O cell line, 72 h incubation, CellTiter-Glo, read-out: EC50, growth inhibition of 786-O; for viability at 4 µM / viability at 10 µM: 786-O, 72 h; for viability at 4 µM: compound at 4 μM; for viability at 10 µM: compound at 10 μM
In short: as §2

[6] = test system: HepG2 (hepatocellular carcinoma) cell line; assay: CellTiter-Glo luminescent cell viability assay, HepG2; type: cell-based, human; conditions: Homo sapiens; for viability at 4 µM / viability at 10 µM: HepG2, HepG, 72 h; for viability at 4 µM: compound at 4 μM; for viability at 10 µM: compound at 10 μM; for EC50: HepG2 cell line, 72 h incubation, CellTiter-Glo, read-out: EC50, growth inhibition of HepG2
In short: as §1

[7] = test system: PANC-1 (prancreatic carcinoma) cell line; assay: CellTiter-Glo luminescent cell viability assay, PANC-1; type: cell-based; conditions: Homo sapiens; for viability at 4 µM: PANC-1, 4 μM; for viability at 4 µM / viability at 10 µM: 72 h, % of signal of diluent-treated cultures; for viability at 10 µM: PANC-1, 10 μM; for EC50: PANC-1 cell line, 72 h incubation, CellTiter-Glo, read-out: EC50 (growth inhibition assay of PANC-1 cell line)
In short: as §1

Structure (SMILES) | EC50 [1] [µM] | EC50 [2] [µM] | EC50 [3] [µM] | EC50 [4] [µM] | EC50 [5] [µM] | EC50 [6] [µM] | viability at 4 µM [1] [%] | viability at 10 µM [1] [%] | viability at 4 µM [2] [%] | viability at 10 µM [2] [%] | viability at 4 µM [3] [%] | viability at 10 µM [3] [%] | viability at 4 µM [4] [%] | viability at 10 µM [4] [%] | viability at 4 µM [5] [%] | viability at 10 µM [5] [%] | viability at 4 µM [6] [%] | viability at 10 µM [6] [%] | viability at 4 µM [7] [%] | viability at 10 µM [7] [%] | further results
N#Cc1c(NCc2ccc(Cl)cc2)nc2ccccc2c1N1CCC(N2CCCC2)C1 (stereo not drawn) [Compound 148CN, 2-(4-chloro-benzylamino)-3-cyano-4-[3-(pyrrolidin-1-yl)pyrrolidin-1-yl]quinoline] |  |  |  |  |  |  | 92.9 | 94.7 | 94.1 | 93.2 | 93.5 | 92.2 | 91.9 | 80.8 | 88.2 | 67 | 104 | 91.9 | 102 | 100 | 
CC(C)(C)NC1CCN(c2c(F)c(NCc3ccc(F)cc3)nc3ccccc23)CC1 [Compound 240F, 2-(4-fluorobenzylamino)-3-fluoro-4-[4-(tert-butylamino)piperidin-1-yl]quinoline] | 5 to 10 | 5 to 10 | 5 to 10 | 5 to 10 | 5 to 10 | 5 to 10 | 83.4 | 50.8 | 73.6 | 0.2 | 49.6 | 0.2 | 70.5 | 2.5 | 94.7 | 28.7 | 46.1 | 0.1 | 96.5 | 59.5 | EC50 [7]: 5 to 10 µM
CC(C)(C)OC(=O)NC1CCN(c2c(C#N)c(NCc3ccc(Cl)cc3)nc3ccccc23)CC1 [Compound 182CN, 2-(4-chlorobenzylamino)-3-cyano-4-{4-[(tert-butyloxycarbonyl)amino]piperidin-1-yl}quinoline] |  |  |  |  |  |  | 86.9 | 48.7 | 94.4 | 90.2 | 66.9 | 47.7 | 86 | 76.2 | 89.9 | 83.9 | 91.6 | 89.8 | 100 | 95.3 | 

Continued, in another order:

EC50 [1] [µM] | EC50 [2] [µM] | EC50 [3] [µM] | EC50 [4] [µM] | EC50 [5] [µM] | EC50 [6] [µM] | Structure (SMILES) | viability at 4 µM [1] [%] | viability at 10 µM [1] [%] | viability at 4 µM [2] [%] | viability at 10 µM [2] [%] | viability at 4 µM [3] [%] | viability at 10 µM [3] [%] | viability at 4 µM [4] [%] | viability at 10 µM [4] [%] | viability at 4 µM [5] [%] | viability at 10 µM [5] [%] | viability at 4 µM [6] [%] | viability at 10 µM [6] [%] | viability at 4 µM [7] [%] | viability at 10 µM [7] [%] | further results
0.5 to 5 | 0.5 to 5 | 0.5 to 5 | 0.5 to 5 | 0.5 to 5 | 0.5 to 5 | N#Cc1c(NCc2ccc(Cl)cc2)nc2ccccc2c1N1CCC(N)CC1 [Compound 3170CN, 2-(4-chlorobenzylamino)-3-cyano-4-(4-aminopiperidin-1-yl)quinoline] | 84.2 | 0.4 | 0.5 | 0.3 | 0.7 | 0.2 | 79.4 | 0.4 | 36.5 | 0.4 | 0.6 | 0.3 | 89.6 | 0.6 | EC50 [7]: 5 to 10 µM
5 to 10 | 5 to 10 | 0.5 to 5 | 5 to 10 | 0.5 to 5 | 5 to 10 | CC(C)(C)NC1CCN(c2c(C#N)c(Nc3cccc(F)c3)nc3ccccc23)CC1 [Compound 3262CN, 2-(3-fluorophenylamino)-3-cyano-4-[4-(tert-butylamino)piperidin-1-yl]quinoline] | 98.7 | 0.6 | 74.9 | 0.6 | 2.6 | 0.5 | 67.9 | 0.7 | 42.6 | 0.7 | 70.8 | 0.6 | 101 | 48 | 
